Data taken from the Kinase Knowledgebase extract (Sharma et al. 2016).

Tests used:
EGFR (human) [1] = molecular target: EGFR (human) (UniProt P00533); settings: hn5
EGFR (human) [2] = molecular target: EGFR (human) (UniProt P00533)

Sequence of EGFR (human) (P00533 whole entry, looked up): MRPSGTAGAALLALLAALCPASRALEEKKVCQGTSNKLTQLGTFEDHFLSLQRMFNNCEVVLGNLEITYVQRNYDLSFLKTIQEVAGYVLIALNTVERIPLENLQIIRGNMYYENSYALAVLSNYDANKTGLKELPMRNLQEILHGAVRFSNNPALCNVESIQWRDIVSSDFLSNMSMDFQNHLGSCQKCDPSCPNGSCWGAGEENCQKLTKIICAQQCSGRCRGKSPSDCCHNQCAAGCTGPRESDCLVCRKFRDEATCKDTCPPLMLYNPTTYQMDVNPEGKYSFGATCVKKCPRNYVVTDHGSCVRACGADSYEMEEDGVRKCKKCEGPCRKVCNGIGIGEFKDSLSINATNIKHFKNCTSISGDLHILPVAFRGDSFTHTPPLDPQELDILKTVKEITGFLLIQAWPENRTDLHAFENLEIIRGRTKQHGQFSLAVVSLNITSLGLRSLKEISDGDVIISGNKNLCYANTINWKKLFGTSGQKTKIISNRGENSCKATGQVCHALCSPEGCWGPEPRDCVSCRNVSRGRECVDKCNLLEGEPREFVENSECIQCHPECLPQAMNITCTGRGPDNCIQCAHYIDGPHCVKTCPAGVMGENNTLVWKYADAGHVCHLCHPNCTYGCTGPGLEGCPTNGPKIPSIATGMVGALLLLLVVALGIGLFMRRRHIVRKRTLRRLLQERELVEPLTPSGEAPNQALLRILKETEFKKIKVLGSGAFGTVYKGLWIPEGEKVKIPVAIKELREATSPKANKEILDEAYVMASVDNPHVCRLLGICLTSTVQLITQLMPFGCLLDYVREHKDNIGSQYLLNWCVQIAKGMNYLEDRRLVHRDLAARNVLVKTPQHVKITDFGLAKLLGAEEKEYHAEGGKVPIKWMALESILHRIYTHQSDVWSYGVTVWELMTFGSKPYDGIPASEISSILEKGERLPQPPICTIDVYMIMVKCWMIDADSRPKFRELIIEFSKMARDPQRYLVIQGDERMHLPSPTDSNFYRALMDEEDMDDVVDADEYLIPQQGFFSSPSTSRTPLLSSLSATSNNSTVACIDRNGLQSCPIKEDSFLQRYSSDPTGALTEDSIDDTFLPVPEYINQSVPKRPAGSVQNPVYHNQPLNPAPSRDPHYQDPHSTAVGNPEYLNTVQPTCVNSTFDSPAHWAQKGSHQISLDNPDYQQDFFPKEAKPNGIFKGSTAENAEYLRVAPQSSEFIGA

Question: `CN(CCO)c1cc2c(Nc3ccc4c(cnn4Cc4ccccc4)c3)ncnc2cn1` was tested. Which IC50 (EGFR (human) [1]) did it give?
Answer: Its IC50 is 300 nM.

Question: And the IC50 (EGFR (human) [2])?
Answer: The IC50 was 36 nM.

Question: Which IC50 (EGFR (human) [1]) does the source give for `CS(=O)(=O)CCNCc1ccc(-c2ccc3ncnc(Nc4ccc(S(=O)(=O)c5ccccc5)cc4)c3c2)o1` here?
Answer: The IC50 was 1130 nM.

Question: And the IC50 (EGFR (human) [2])?
Answer: Its IC50 is 29 nM.

Question: Which results are given for `CS(=O)(=O)CCNCc1ccc(-c2cc3c(Nc4ccc(OCc5ccccc5)cc4)ncnc3cn2)o1`?
Answer: IC50 (EGFR (human) [1]): 430 nM; IC50 (EGFR (human) [2]): 25 nM

Question: With `Cc1nnc(-c2ccc3ncnc(Nc4ccc5c(cnn5Cc5cccc(F)c5)c4)c3c2)o1` as the molecule, how does the IC50 (EGFR (human) [1]) read?
Answer: The IC50 was 830 nM.

Question: What about the IC50 (EGFR (human) [2]) of the same molecule?
Answer: Its IC50 is 26 nM.
